Reference: PMC5433425 (PeerJ, 2017)
Values after ≈ are worked out from the molar mass of the structure shown. Values joined by “and” are separate entries in the source; they are usually repeats but may differ in a detail not shown here. Identical values can stand only once.

Key:
Assay type in all cases: cell-based
[1] = system: human monocyte-derived macrophages; experiment: Cytotoxicity, AlamarBlue method; details: for AlamarBlue fluorescence 530/25,590/35 (raw well reading): 72 h
Method: (§1) The blood was collected from healthy donors and the peripheral blood mononuclear cells were isolated by Ficoll-Paque Plus (GE Healthcare, Freiburg, Germany) density gradient centrifugation as previously described ([Machado et al., 2016]). […] Fresh medium was added at day 4 post isolation. The effect of the compounds on human monocyte-derived macrophages was evaluated using the AlamarBlue method (Molecular Probes, Life Technologies) ([O’Brien et al., 2000]), and by measuring the release of the lactate dehydrogenase (LDH) into the culture supernatants using the Pierce LDH Cytotoxicity Assay (ThermoFisher Scientific, Waltham, MA, USA) ([Chan, Moriwaki & Rosa, 2013]) according to the manufacturer’s instructions. Briefly, 5 × 10^4 cells were seeded in 96-well microplates treated with the compounds, and incubated at 37 °C with 5% CO2. After 72 h of treatment, the cell viability was assessed. For the AlamarBlue method, the dye was added to each well to a final concentration of 10% and incubated overnight at 37 °C and 5% CO2. The fluorescence was measured with a 540/35 excitation filter and a 590/20 emission filter in a Synergy HT multi-mode microplate reader. The release of LDH from damaged cells into culture supernatants, as an indicator of cytotoxicity, was measured in serum-free medium. Here the amount of enzyme activity correlates to the number of damaged cells. The specific lysis was calculated as follows: (treated cells—spontaneous LDH release)/ (maximum LDH release—spontaneous LDH release) ×100.

[2] = system: human monocyte-derived macrophages; experiment: Cytotoxicity, LDH release; details: 3 days; for LDH release: human
Method: as §1

[3] = system: Enterobacter aerogenes ATCC13048; experiment: MIC, antibacterial specificity
[4] = system: Acinetobacter baumannii ATCC19606T; experiment: MIC, antibacterial specificity
[5] = system: Staphylococcus aureus ATCC25923; experiment: MIC, antibacterial specificity
[6] = three days of exposure, AlamarBlue

SMILES | CC10 ([1]; human, 3 days) [µM] | LDH release ([2]; 1.25 µM) [%] | LDH release ([2]; 20 µM) [%] | AlamarBlue fluorescence 530/25,590/35 (raw well reading) ([1]; 0.625 uM) | AlamarBlue fluorescence 530/25,590/35 (raw well reading) ([1]; 1.25 uM) | AlamarBlue fluorescence 530/25,590/35 (raw well reading) ([1]; 5 uM) | AlamarBlue fluorescence 530/25,590/35 (raw well reading) ([1]; 10 uM) | AlamarBlue fluorescence 530/25,590/35 (raw well reading) ([1]; 20 uM) | AlamarBlue fluorescence 530/25,590/35 (raw well reading) ([1]; 40 uM) | AlamarBlue fluorescence 530/25,590/35 (raw well reading) ([1]; 80 uM) | AlamarBlue fluorescence 530/25,590/35 (raw well reading) ([1]; 160 uM) | CC10 [1, 6] [µM] | CC90 [1, 6] [µM] | increase in LDH release ([2]; 5 µM) [%] | MIC [3] [µg/mL] | MIC [4] [µg/mL] | MIC [5] [µg/mL]
CN(C)CCCN1c2ccccc2Sc2ccc(Cl)cc21 [CPZ, chlorpromazine] | 13.36 | 0.95 | 24 |  |  |  |  |  |  |  |  |  |  |  |  |  | 
CCCOc1ccc(-c2cc(OCCN3CCNCC3)c3ccccc3n2)cc1 [PQQ4R, 4-(2-(piperazin-1-yl)ethoxy)-2-(4-propoxyphenyl) quinolone] |  |  |  | 4943 and 4771 and 4650 | 4755 and 4559 and 4604 | 468 and 451 and 495 | 253 and 248 | 256 and 246 and 248 | 254 and 251 and 248 | 254 and 250 and 251 | 259 and 263 and 255 | 9.21 | 12.7 | 52.45 | >256 | 128 (≈ 327 µM) | 50 (≈ 128 µM)
